# Tests used:
# C3H/10T1/2 cells = experiment: Osteoblast formation activity (calcium deposition assay, Alizarin Red S); assay type: cell-based, mouse
# Experimental: C3H/10T1/2 cells, which are mouse mesenchymal progenitor cells purchased from ATCC, were diluted in DMEM (Dulbecco's Modified Eagle Medium) medium containing 5.958 g/L HEPES, 3.7 g/L sodium bicarbonate, and 10% FBS (fetal bovine serum), and cultured in 24-well culture plates at a density of 4×10^4 cells/well, in the presence of 5% CO2 at 37° C. for 2 days. The cultured cells were grown to 90˜100% confluency in the culture plates, the cells were cultured in DMEM medium containing 10% FBS, to which 10 mM of β-glycerophosphate and 50μ/ml of ascorbic acid were added, in the presence of 5% CO2 at 37° C. for 6 days, to induce differentiation into osteoblast. The medium was exchanged every other day during differentiation. The C3H/10T1/2 cell line, in which differentiation into the osteoblast was induced, was washed with PBS (Phosphate Buffered Saline) once, and fixed with 70% ethanol at 20° C. for 1 hour. The cells after fixing were washed with cold PBS three times, and stained with 40 mM Alizarin Red S dye solution at room temperature for 20 minutes. The dye solution was removed and the cells were washed with distilled water three times in order to selectively observe only the cells differentiated into the osteoblast.
# An aliquot 116V and an aliquot 116VI extracted and partitioned from sponges are dissolved in a DMSO solvent, and used to treat the C3H/10T1/2 cell line, mesenchymal progenitor cells, at concentrations of 1, 2.5, 5, 10, and 20 ug/ml. […] Since then, the same experiment was performed on the compound (1163), the compound 2 (1162), the compound 3 (1161), and the compound 4 (1164), which were purely separated from the aliquots 116V and 116VI, and as a result, it could be confirmed that the osteoblast differentiation ability was increased in the compounds 1, 3, and 4. […] To study a mechanism with respect to osteoblast differentiation ability, the C3H/10T1/2 cell lines were treated with the compound 1 and the compound 4 for 6 days, respectively. […] Also, the C3H/10T1/2 cell lines were treated with the compound 1 and the compound 4 for 6 days, respectively. […] Furthermore, it could be ascertained that combining of Runx2 and TAZ proteins was increased by treatment of the compounds and thus the activity of Runx2-meditated transcription was increased. The compound 5, which is an ester derivative of the compound 1 (1163), was synthesized in order to prepare a material having more excellent bioactivity, and the structure of the compound 5 obtained thus was determined. […] Therefore, the compounds of the present invention and derivatives thereof are expected to promote the differentiation of the osteoblast and thus play an innovative role in treatment of osteoporosis.
# 3T3-L1 cells = experiment: Adipocyte differentiation inhibitory ability in 3T3-L1 cells; assay type: cell-based
# LXRα = target: T1, LXRα (Homo sapiens, UniProt Q13133); experiment: LXR antagonistic activity, GAL-hLXR luciferase transfection assay in CV-1 cells; assay type: cell-based; details: antagonism, together with agonist TO901317 (2.5 μM), 24 hours
# T1 sequence (Q13133 209-447 limits assumed): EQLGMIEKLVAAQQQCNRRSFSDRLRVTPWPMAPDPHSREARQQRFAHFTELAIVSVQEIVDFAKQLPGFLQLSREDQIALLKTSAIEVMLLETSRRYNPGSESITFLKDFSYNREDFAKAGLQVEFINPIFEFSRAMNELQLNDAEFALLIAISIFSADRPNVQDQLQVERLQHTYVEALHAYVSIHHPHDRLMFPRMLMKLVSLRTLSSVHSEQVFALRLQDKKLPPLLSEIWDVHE
# Experimental: (§1) Animal cell line CV-1 was used in transfection search. Cells were cultured in DMEM medium within a cell culture device containing 5% carbon dioxide at 37° C. The medium contained 10% FBS (fetal bovine serum), 100 U/ml penicillin, and 100 μg/ml streptomycin. On day 1 of the experiment, CV 1 cells were seeded in 96 well plates at 5,000 cells/well. On day 2, the seeded cells were transfected with plasmid expressing GAL-hLXR, plasmid expressing Luciferase gene, and plasmid expressing β-galactocidase by using a transfection reagent, Superfect (QIAGEN). After 16 hours, the transfected cells were treated with the compound 1 dissolved in dimethylsulfoxide (DMSO) by the concentrations, together with the agonist, TO901317 (2.5 μM). Cells treated with dimethylsulfoxide having the final concentration of 1% were used as a negative control group, and cells treated with T0901317 having the final concentration of 500 nM were used as a positive control group. The cells were cultured for 24 hours, and lysed by using a lysis buffer. […] The β-galactosidase activity, after adding of an ONPG reagent, was measured using an ELISA reader. The measured Luciferase value was corrected by activity value of β-galactosidase. […] In addition, the activities on various nuclear receptors were measured by using the same method, in order to measure selectivity for various nuclear receptors.
# LXRβ = target: T2, LXRβ (Homo sapiens, UniProt P55055); experiment: as above; assay type: cell-based; details: antagonism, together with agonist TO901317 (2.5 μM), 24 hours
# T2 sequence (P55055 222-460 limits assumed): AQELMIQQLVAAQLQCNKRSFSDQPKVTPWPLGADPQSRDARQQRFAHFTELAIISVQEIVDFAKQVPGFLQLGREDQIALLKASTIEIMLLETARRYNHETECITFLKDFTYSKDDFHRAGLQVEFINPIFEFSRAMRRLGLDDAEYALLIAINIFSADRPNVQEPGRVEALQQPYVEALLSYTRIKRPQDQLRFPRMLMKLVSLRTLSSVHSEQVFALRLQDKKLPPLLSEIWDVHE
# Experimental: as §1
# C57BL/6 mice = experiment: Fatty liver inhibitory efficacy in T0901317-induced fatty liver model; assay type: in vivo, mouse
# Text: In order to verify the fatty liver inhibitory efficacy of the compound 1 developed in the present invention, C57BL/6 mice were used in this experiment. A fatty liver model was constructed by administering T0901317, which generates fatty liver, to 10-week age C57BL/6 mice while feeding the C57BL/6 mice with general feed-additive. The fatty liver inhibitory efficacy of the compound 1 was observed by orally administering this compound. A mouse fed with 0.75% of only carboxymethylcellulose, as a medication deliver, was used for a negative control group, and a mouse fed with only TO901317 was used for a positive control group. In addition, in order to analyze gene expression of C57BL/6 mouse liver, the mouse livers of the negative control group, the positive control group, and the treatment group were extracted and treated with Trizol, to obtain RNAs. The obtained RNAs were quantified using an absorption spectrometer (Nanodrop), and cDNAs were obtained from RNAs having the same amount among respective groups through an RT-PCR method using oligo dT and reverse transcriptase. The real-time polymerase chain reaction was performed using cDNAs, which were obtained for analysis of mRNA change among groups, as templates, and using primers of transporter genes related to fat synthesis and inflow of fat to the liver. […] Accordingly, the compounds of the present invention and derivatives thereof are expected to play a very innovative role in treatment of alcoholic fatty liver, non-alcoholic fatty liver, and fatty liver due to viral infection.
# [1] = Solubility in organic solvents; assay type: physicochemical
smiles,measurement,setting,value
CC(C)=CCC/C(C)=C/[C@H]1CC(C)=C[C@@]2(C=C(CO)[C@@H]3CC(=O)C(C)=C[C@@H]3O2)O1 [Compound 1],"osteoblast differentiation ability, concentration dependence","C3H/10T1/2 cells; C3H/10T1/2, 1, 2.5, 5, 10, and 20 ug/ml, 6 days",remarkably increased at the concentrations of up to 10 ug/ml in a concentration-dependent manner
same,osteoblast differentiation ability,"C3H/10T1/2 cells; C3H/10T1/2, calcium deposition",increased
same,concentration at which cytotoxicity was observed,C3H/10T1/2 cells; C3H/10T1/2 during osteoblast differentiation,20000 ng/mL
same,adipocyte differentiation inhibitory ability,3T3-L1 cells,very superior adipocyte differentiation inhibitory ability
same,IC50,LXRα,18.7 nM
same,IC50,LXRβ,20.4 nM
same,liver expression of fatty acid synthetic genes and transporter genes of transporting fats to the liver,"C57BL/6 mice; mouse liver, real-time PCR",inhibits the expression
same,fatty liver inhibitory efficacy,"C57BL/6 mice; oral administration, T0901317-induced fatty liver, C57BL/6 mice",very superior fatty liver inhibitory efficacy
same,body weight among the treatment group and the control groups,"C57BL/6 mice; oral administration, fatty liver-induced C57BL/6 mice",no difference in body weight
same,Solubility,[1],"Easily Dissolved in Organic Solvent of Acetone, Methanol, DMSO, etc."
